In patent publication US20090271164A1, “PREDICTING LONG-TERM EFFICACY OF A COMPOUND IN THE TREATMENT OF PSORIASIS” (priority 2008, published 2009):
Where “and” joins values, the source holds several entries; their conditions need not be identical. Identical values can stand only once. Like-named read-outs stand apart in the source and are kept apart here.

Key:
[1] = tested on: patients with moderate-to-severe chronic plaque psoriasis; experiment: Study M04-716 (CHAMPION), 16-week Phase III active- and placebo-controlled trial, PASI 75 response; type: in vivo, human; settings: for PASI 75 response rate at Week 16: observed, Week 16 relative to Baseline
Procedure: The primary efficacy endpoint was the proportion of subjects achieving at least a 75% reduction in the Psoriasis Area and Severity Index (PASI) score (i.e., ≧PASI 75 response) at Week 16 relative to Baseline (Week 0).
Study M04-716 was a 16-week multicenter, double-blind, and double-dummy study.
PASI scores were assessed prior to the first dose of study drug (Baseline) and at Weeks 1, 2, 4, 8, 12 and 16.
Dose escalation/titration was carried out according to the efficacy and safety criteria defined in the protocol.
In addition, the subjects were candidates for systemic therapy or phototherapy.
The ADA treatment group received 40 mg every-other-week (eow) injections from Week 1, following an 80-mg initial dose. […] Dose escalation was carried out according to the efficacy and safety criteria defined in the study protocol. All study patients received injections as well as oral tablets, regardless of treatment group assignment (double-dummy design) (FIG. 5). Patient outcome was measured using a PASI 75 response: a 75% reduction (improvement) in PASI score at Week 16 compared with the baseline score.

[2] = tested on: patients with moderate-to-severe chronic plaque psoriasis; experiment: Population PK/PD (exposure-efficacy) modeling with NONMEM and clinical trial simulation of long-term MTX treatment; parameters: species or system human
Source text: The PK/PD model was built using a non-linear mixed-effects population modeling (NONMEM) approach with NONMEM software (double precision, Version VI) and a NMTRAN pre-processor. Models were compiled using the Intel Visual Fortran compiler (Version 9) on a dual processor workstation (DELL Precision 530) under the Windows 2000 (Service pack 4) operating system.
All 110 MTX-treated subjects in Study M04-716 were included in the population PK/PD analysis.
All the observed PASI scores over the 16-week period in MTX-treated subjects in Study M04-716 were used.
The amount in the central compartment was scaled by the apparent volume of distribution (V/F).
All subjects were assumed to have the typical PK parameter values (i.e., intersubject and intrasubject variabilities were set to zero).
Several PD models were examined. The first model is an indirect response model with an inhibitory effect (Imax and IC50) of Ce (concentration at an effect compartment) on Kin. Kin is the ‘synthesis rate’ into a compartment where PASI scores reside in. The 2nd model examined was similar to the final PD model (see below), except that the rate into the 3rd compartment is Kin·(Emax/(1+EC50/Cp)), rather than Kin·Cp.
The final PD model is a two-step indirect model (as shown below). […] In this model, Compartments 3 and 4 were added as delay/modulator compartments for triggering the observed PASI response.
Kin and Kout are the rate constants into and out of Compartment 3. […] Kout was set equal to Kin. K40 is the rate constant out of Compartment 4, and it controls the persistence of PASI response. PASI is the predicted PASI score, which equals to the baseline PASI score divided by a factor great than one, and the parameter ‘GAM’ influences the steepness of the functional relationship.
For the PD modeling, exponential error models were used to describe the inter-individual errors on the PD parameters Kin and K40.
The evaluation criteria used to select an appropriate PK/PD model are described below: • 1. […] The OFV is equal to −2 times the maximum logarithm of the likelihood of the data (−2LL). Non-hierarchical models are compared based on the AKAIKE criterion. • 2. The observed and predicted PASI scores from a preferred model were more randomly distributed across the line of unity (a straight line with zero intercept and a slope of one) than those from alternative model(s). • 3.
The first-order conditional estimation (FOCE) with INTERACTION method was employed within NONMEM, and a diagonal structure of the n matrix was assumed.
The final population PK/PD model was validated using a bootstrap method (random resampling with replacement). […]

[3] = cited from earlier work
[4] = two-step indirect response model, Run 18
[5] = fixed in the PK model, from the literature

With `CN(Cc1cnc2nc(N)nc(N)c2n1)c1ccc(C(=O)N[C@@H](CCC(=O)O)C(=O)O)cc1` [MTX, methotrexate] the “PASI75 Response Rate (90% CI) Actual (NRI)” value ([1]; Week 1) was 0.0 (0.1, 3.2), the “PASI75 Response Rate (90% CI) Actual (NRI)” value ([1]; Week 2) was 0.0 (0.1, 3.2) and the “PASI75 Response Rate (90% CI) Actual (NRI)” value ([1]; Week 4) was 2.7 (0.8, 7.2). The “PASI75 Response Rate (90% CI) Actual (NRI)” value ([1]; Week 8) was 9.1 (5.2, 15.2), the “PASI75 Response Rate (90% CI) Actual (NRI)” value ([1]; Week 16) was 35.5 (28.0, 43.7) and the “PASI 75 response rate at Week 16” value [1] was 35.5%. The “simulated PASI 75 response rate at Week 52 greater than that at Week 16” value ([2]; difference Week 52 vs Week 16) was “approximately 12%”, the “K40 = THETA (2), estimate, final PD model” value [2, 4] was 0.0203 day⁻¹ and the “Kin = THETA (1), estimate, final PD model” value [2, 4] was 3.83 day⁻¹. The “calculated Tmax” value ([2]; with CL/F = 3 L/day/kg, V/F = 0.6 L/kg, Ka = 10 day^−1) was “Tmax would be 3.3 hrs,”, the “V/F (apparent volume of distribution), values in the literature” value ([3]; RA) was 0.55 L/kg in RA.^2 and the “CL/F (apparent clearance), value used in NONMEM” value [3, 5] was 2.1 mL/min/kg. The “Ka (first-order absorption rate constant), value used in NONMEM” value [3, 5] was 10 day⁻¹, the “V/F (apparent volume of distribution), value used in NONMEM” value [3, 5] was 0.6 L/kg and the half-life ([3]; in vivo) was 2 to 3 h. The “Tmax, values in the literature” value ([3]; leukemic pediatric patients) was “Tmax = 0.67-4 hrs in leukemic pediatric patients.^3”, the “Vss (volume of distribution at steady state), values in the literature” value ([3]; patient population unspecified) was 0.4-0.8 L/kg (Vss).^3 and the “CL/F (apparent clearance), values in the literature” value ([3]; patients with psoriasis) was 12.4 L/h and 10.8 L/h and 11.5 L/h. For the same molecule, the “Tmax, values in the literature” value ([3]; patients with psoriasis) was “Tmax = 2 hrs in patients with psoriasis” and the “CL/F (apparent clearance), values in the literature” value ([3]; patients with rheumatoid arthritis (RA)) was 2.1 mL/min/kg in patients with rheumatoid.

For adalimumab, the “PASI 75 response rate at Week 16” value [1] was 79.6%.
